Earlier results, collected in patent publication US20190274302A1, “COMPOSITIONS FOR ACTIVE TREATING AND […] DISEASES” (priority 2018, published 2019).
Read-outs that look alike come from different tables or passages of the source.

Row | SMILES | pH (1 mM) | pH (10 mM) | pH (100 mM)
1 | O=CO [formic acid] | 3.47 | 2.91 | 2.38
2 | Oc1ccccc1 [phenol] | 6.47 | 5.99 | 5.49
3 | O=C(O)c1ccccc1 [benzoic acid] | 3.66 | 3.12 | 2.60
4 | O=C(O)/C=C(/CC(=O)O)C(=O)O [cis-aconitic acid] | 3.05 | 2.21 | 1.55
5 | O=C(O)/C=C(\CC(=O)O)C(=O)O [trans-aconitic acid] | 3.14 | 2.48 | 1.92
6 | CC(=O)O [acetic acid] | 3.91 | 3.39 | 2.88
7 | O=C1O[C@H]([C@@H](O)CO)C(O)=C1O [ascorbic acid] | 3.59 | 3.04 | 2.53

Continued, values first:

Row | pH (1 mM) | pH (10 mM) | pH (100 mM) | SMILES
8 | 3.00 | 2.09 | 1.31 | O=C(O)C(=O)O [oxalic acid]
9 | 3.33 | 2.74 | 2.21 | O=C(O)CC(O)C(=O)O (stereo not drawn) [malic acid]
10 | 3.96 | 3.44 | 2.94 | CCC(=O)O [propanoic acid]
11 | 3.51 | 2.96 | 2.44 | CC(O)C(=O)O (stereo not drawn) [lactic acid]
12 | 3.17 | 2.50 | 1.94 | O=C(O)CC(=O)O [malonic acid]
13 | 3.21 | 2.57 | 2.02 | O=C(O)c1ccccc1O [salicylic acid]
14 | 3.24 | 2.62 | 2.08 | O=C(O)CC(O)(CC(=O)O)C(=O)O [citric acid]
